One test deals with Carbonic anhydrase 1 (Homo sapiens, UniProt P00915).
The next test has as its target T1, Carbonic anhydrase 4 (Bos taurus, UniProt Q95323).
T1 sequence (Q95323 whole entry): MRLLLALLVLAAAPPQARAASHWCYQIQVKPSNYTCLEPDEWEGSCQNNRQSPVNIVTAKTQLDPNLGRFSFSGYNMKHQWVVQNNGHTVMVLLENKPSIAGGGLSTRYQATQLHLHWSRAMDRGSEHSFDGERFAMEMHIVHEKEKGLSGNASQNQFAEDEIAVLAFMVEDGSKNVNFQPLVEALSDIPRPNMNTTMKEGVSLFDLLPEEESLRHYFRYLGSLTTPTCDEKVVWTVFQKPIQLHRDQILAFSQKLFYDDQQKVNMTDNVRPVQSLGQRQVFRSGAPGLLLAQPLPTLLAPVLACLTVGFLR

The next test relates to Rattus norvegicus. In words: Renal excretion of bicarbonate after administration of 5 mg/kg in rats. It counts as functional, Kidney.

Molecules are shown by their SMILES.

Carbonic anhydrase 1, sequence (P00915 whole entry): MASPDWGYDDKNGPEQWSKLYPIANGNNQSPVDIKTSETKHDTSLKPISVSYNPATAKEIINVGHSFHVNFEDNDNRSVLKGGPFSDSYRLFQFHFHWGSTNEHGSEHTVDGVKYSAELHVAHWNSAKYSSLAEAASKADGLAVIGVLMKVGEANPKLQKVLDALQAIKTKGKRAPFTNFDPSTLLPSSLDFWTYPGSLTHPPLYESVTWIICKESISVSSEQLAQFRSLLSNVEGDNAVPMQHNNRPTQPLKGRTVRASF
Description for Carbonic anhydrase 1: Inhibitory activity against human carbonic anhydrase I (CA1)
Description for Carbonic anhydrase 4: Inhibitory activity against bovine carbonic anhydrase IV (CA4), isolated from bovine lung microsomes

With `CC(C)c1cc(-c2ccccc2)cc(C(C)C)[n+]1CC(=O)OCCOc1ccc2nc(S(N)(=O)=O)sc2c1`, the inhibitory constant (Ki) at Carbonic anhydrase 1 turned out to be 0.011 µM; at Carbonic anhydrase 4, 0.03 µM.

Turning to `Cc1cc(C)[n+](CC(=O)NNc2ccc(S(N)(=O)=O)cc2)c(C)c1`, the Ki stood at 35 µM on Carbonic anhydrase 1 and 0.45 µM at Carbonic anhydrase 4.

For `Cc1cc(-c2ccccc2)cc(C)[n+]1CC(=O)OCCc1ccc(S(N)(=O)=O)cc1`, the inhibition constant (Ki) was found to be 1.1 µM at Carbonic anhydrase 1 and 0.069 µM on Carbonic anhydrase 4.

`CC(C)c1cc(-c2ccccc2)cc(C(C)C)[n+]1CC(=O)Nc1ccc(S(=O)(=O)Nc2nnc(S(N)(=O)=O)s2)cc1`: the results for the Ki on Carbonic anhydrase 1 and at Carbonic anhydrase 4 were 0.014 µM and 0.01 µM, respectively.

In the case of `CC(C)c1cc(-c2ccccc2)cc(C(C)C)[n+]1CC(=O)OCc1ccc(S(N)(=O)=O)cc1`, the inhibitory constant (Ki) was determined as 1.77 µM on Carbonic anhydrase 1 and 0.12 µM at Carbonic anhydrase 4.

On to `Cc1cc(C)[n+](CC(=O)Nc2ccc(S(N)(=O)=O)cc2I)c(C)c1`, for which the Ki on Carbonic anhydrase 1 came to 0.81 µM; at Carbonic anhydrase 4, 0.078 µM.

In the case of `Cc1cc(-c2ccccc2)cc(C)[n+]1CC(=O)OCc1ccc(S(N)(=O)=O)cc1`, the inhibition constant Ki on Carbonic anhydrase 1 was 1.35 µM; at Carbonic anhydrase 4, 0.075 µM.

`Cc1cc(C)[n+](CC(=O)Nc2ccc3nc(S(N)(=O)=O)sc3c2)c(C)c1`: the Ki on Carbonic anhydrase 1 worked out at 0.015 µM; on Carbonic anhydrase 4, 0.05 µM.

For the compound `CCc1cc(-c2ccccc2)cc(CC)[n+]1CC(=O)Nc1ccc(S(=O)(=O)Nc2nnc(S(N)(=O)=O)s2)cc1`, the inhibition constant (Ki) on Carbonic anhydrase 1 stood at 0.012 µM; on Carbonic anhydrase 4 it was 0.009 µM.

On to `Cc1cc(-c2ccccc2)cc(C)[n+]1CC(=O)Nc1ccc(S(N)(=O)=O)cc1F`, for which the Ki was found to be 0.7 µM on Carbonic anhydrase 1 and 0.036 µM at Carbonic anhydrase 4.

On to `CCc1cc(-c2ccccc2)cc(CC)[n+]1CC(=O)Nc1ccc(S(N)(=O)=O)cc1`, for which the inhibition constant (Ki) on Carbonic anhydrase 1 came to 15 µM; on Carbonic anhydrase 4 it was 0.17 µM.

Regarding `Cc1cc(C)[n+](CC(=O)Nc2ccccc2S(N)(=O)=O)c(C)c1`, the values for the inhibition constant Ki at Carbonic anhydrase 1 and at Carbonic anhydrase 4 were 32 µM and 0.425 µM, respectively.

As for `CCc1cc(-c2ccccc2)cc(CC)[n+]1CC(=O)Nc1ccc(S(N)(=O)=O)cc1Br`, the Ki at Carbonic anhydrase 1 turned out to be 0.615 µM; on Carbonic anhydrase 4, 0.055 µM.

As for `Cc1cc(-c2ccccc2)cc(C)[n+]1CC(=O)Nc1ccc(S(N)(=O)=O)cc1Br`, the inhibition constant Ki on Carbonic anhydrase 1 stood at 0.6 µM; on Carbonic anhydrase 4, 0.035 µM.

Take `Cc1cc(-c2ccccc2)cc(C)[n+]1CC(=O)Nc1c(S(N)(=O)=O)cc(S(N)(=O)=O)c(Cl)c1Cl`: the results for the Ki on Carbonic anhydrase 1 and on Carbonic anhydrase 4 were 0.38 µM and 0.031 µM, respectively.

In the case of `CCc1cc(-c2ccccc2)cc(CC)[n+]1CC(=O)Nc1cc(C(F)(F)F)c(S(N)(=O)=O)cc1S(N)(=O)=O`, the Ki was determined as 0.31 µM on Carbonic anhydrase 1 and 0.033 µM at Carbonic anhydrase 4.

As to `CC(C)c1cc(-c2ccccc2)cc(C(C)C)[n+]1CC(=O)Oc1ccc2nc(S(N)(=O)=O)sc2c1`, the values for the Ki at Carbonic anhydrase 1 and on Carbonic anhydrase 4 were 0.012 µM and 0.039 µM, respectively.

In the case of `Cc1cc(C)[n+](CC(=O)OCCOc2ccc3nc(S(N)(=O)=O)sc3c2)c(C)c1`, the Ki was 0.012 µM at Carbonic anhydrase 1 and 0.033 µM on Carbonic anhydrase 4.

On to `CCc1cc(-c2ccccc2)cc(CC)[n+]1CC(=O)Nc1ccc2nc(S(N)(=O)=O)sc2c1`, for which the Ki at Carbonic anhydrase 1 amounted to 0.011 µM; on Carbonic anhydrase 4 it was 0.03 µM.

For `Cc1cc(-c2ccccc2)cc(C)[n+]1CC(=O)Nc1ccc(S(=O)(=O)/N=c2/sc(S(N)(=O)=O)nn2C)cc1`, the Ki on Carbonic anhydrase 1 was found to be 0.011 µM; at Carbonic anhydrase 4, 0.008 µM.

Regarding `CCc1cc(-c2ccccc2)cc(CC)[n+]1CC(=O)OCc1ccc(S(N)(=O)=O)cc1`, the results for the Ki on Carbonic anhydrase 1 and at Carbonic anhydrase 4 were 1.7 µM and 0.097 µM, respectively.

For the compound `Cc1cc(-c2ccccc2)cc(C)[n+]1CC(=O)Nc1nccc(Nc2ccc(S(N)(=O)=O)cc2)n1`, the Ki on Carbonic anhydrase 1 was determined as 0.035 µM; at Carbonic anhydrase 4, 0.05 µM.

`CCc1cc(-c2ccccc2)cc(CC)[n+]1CC(=O)Nc1ccc(S(=O)(=O)Nc2ccc(S(N)(=O)=O)cc2)cc1`: the results for the Ki at Carbonic anhydrase 1 and on Carbonic anhydrase 4 were 0.046 µM and 0.063 µM, respectively.

Regarding `Cc1cc(C)[n+](CC(=O)NCc2ccc(S(N)(=O)=O)cc2)c(C)c1`, the inhibitory constant (Ki) on Carbonic anhydrase 1 came out at 1.5 µM; at Carbonic anhydrase 4 it was 0.08 µM.

On to `Cc1cc(C)[n+](CC(=O)Nc2ccc(S(N)(=O)=O)cc2)c(C)c1`, for which the Ki at Carbonic anhydrase 1 stood at 16 µM; on Carbonic anhydrase 4, 0.19 µM.

Consider `CC(C)c1cc(-c2ccccc2)cc(C(C)C)[n+]1CC(=O)Nc1cc(C(F)(F)F)c(S(N)(=O)=O)cc1S(N)(=O)=O`, for which the inhibitory constant (Ki) came out at 0.31 µM on Carbonic anhydrase 1 and 0.042 µM at Carbonic anhydrase 4.

`CC(C)c1cc(-c2ccccc2)cc(C(C)C)[n+]1CC(=O)NCc1ccc(S(N)(=O)=O)cc1`: the inhibition constant Ki worked out at 1.45 µM on Carbonic anhydrase 1 and 0.075 µM on Carbonic anhydrase 4.

In the case of `CC(C)c1cc(-c2ccccc2)cc(C(C)C)[n+]1CC(=O)Nc1cc(Cl)c(S(N)(=O)=O)cc1S(N)(=O)=O`, the Ki was determined as 0.35 µM at Carbonic anhydrase 1 and 0.046 µM at Carbonic anhydrase 4.

In the case of `CC(C)c1cc(-c2ccccc2)cc(C(C)C)[n+]1CC(=O)Nc1ccc(S(N)(=O)=O)cc1Cl`, the Ki at Carbonic anhydrase 1 stood at 0.6 µM; on Carbonic anhydrase 4, 0.056 µM.

Take `Cc1cc(-c2ccccc2)cc(C)[n+]1CC(=O)Nc1cccc(S(N)(=O)=O)c1`: the inhibitory constant (Ki) on Carbonic anhydrase 1 was found to be 19.6 µM; at Carbonic anhydrase 4 it was 0.28 µM.

Turning to `CCc1cc(-c2ccccc2)cc(CC)[n+]1CC(=O)Nc1c(S(N)(=O)=O)cc(S(N)(=O)=O)c(Cl)c1Cl`, the inhibition constant (Ki) at Carbonic anhydrase 1 was found to be 0.4 µM; on Carbonic anhydrase 4, 0.035 µM.

Turning to `Cc1cc(-c2ccccc2)cc(C)[n+]1CC(=O)Nc1cc(C(F)(F)F)c(S(N)(=O)=O)cc1S(N)(=O)=O`, the results for the Ki on Carbonic anhydrase 1 and at Carbonic anhydrase 4 were 0.3 µM and 0.033 µM, respectively.

`Cc1cc(-c2ccccc2)cc(C)[n+]1CC(=O)/N=c1/sc(S(N)(=O)=O)nn1C`: the Ki amounted to 0.2 µM on Carbonic anhydrase 1 and 0.016 µM at Carbonic anhydrase 4.

Consider `Cc1cc(-c2ccccc2)cc(C)[n+]1CC(=O)Nc1ccc(S(N)(=O)=O)cc1Cl`, for which the values for the Ki at Carbonic anhydrase 1 and on Carbonic anhydrase 4 were 0.6 µM and 0.038 µM, respectively.

Turning to `Cc1cc(-c2ccccc2)cc(C)[n+]1CC(=O)Nc1cc(Cl)c(S(N)(=O)=O)cc1S(N)(=O)=O`, the Ki was 0.35 µM at Carbonic anhydrase 1 and 0.03 µM on Carbonic anhydrase 4.

For the compound `CCc1cc(-c2ccccc2)cc(CC)[n+]1CC(=O)Nc1nnc(S(N)(=O)=O)s1`, the inhibition constant Ki was 0.3 µM at Carbonic anhydrase 1 and 0.025 µM on Carbonic anhydrase 4.

For the compound `Cc1cc(C)[n+](CC(=O)Nc2ccc(S(N)(=O)=O)cc2Br)c(C)c1`, the Ki on Carbonic anhydrase 1 stood at 0.8 µM; on Carbonic anhydrase 4, 0.077 µM.

Take `CC(C)c1cc(-c2ccccc2)cc(C(C)C)[n+]1CC(=O)/N=c1/sc(S(N)(=O)=O)nn1C.[O-][Cl+3]([O-])([O-])[O-]`: the Ki at Carbonic anhydrase 1 amounted to 0.3 µM; at Carbonic anhydrase 4, 0.035 µM. In the test with Rattus norvegicus, this compound had a Bicarbonate level of 40.

Regarding `CCc1cc(-c2ccccc2)cc(CC)[n+]1CC(=O)Nc1ccc(S(=O)(=O)Nc2cccc(S(N)(=O)=O)c2)cc1`, the inhibition constant Ki at Carbonic anhydrase 1 turned out to be 0.043 µM; on Carbonic anhydrase 4, 0.06 µM.

With `CCc1cc(-c2ccccc2)cc(CC)[n+]1CC(=O)NNc1ccc(S(N)(=O)=O)cc1`, the Ki on Carbonic anhydrase 1 stood at 28 µM; on Carbonic anhydrase 4, 0.34 µM.

In the case of `Cc1cc(C)[n+](CC(=O)Nc2cc(Cl)c(S(N)(=O)=O)cc2S(N)(=O)=O)c(C)c1`, the Ki stood at 0.36 µM on Carbonic anhydrase 1 and 0.064 µM at Carbonic anhydrase 4.

Turning to `CCc1cc(-c2ccccc2)cc(CC)[n+]1CC(=O)Nc1cc(Cl)c(S(N)(=O)=O)cc1S(N)(=O)=O`, the Ki was 0.35 µM at Carbonic anhydrase 1 and 0.036 µM on Carbonic anhydrase 4.

On to `CC(C)c1cc(-c2ccccc2)cc(C(C)C)[n+]1CC(=O)NCCc1ccc(S(N)(=O)=O)cc1`, for which the Ki on Carbonic anhydrase 1 is 0.775 µM; at Carbonic anhydrase 4, 0.07 µM.

Regarding `CC(C)c1cc(-c2ccccc2)cc(C(C)C)[n+]1CC(=O)Nc1c(S(N)(=O)=O)cc(S(N)(=O)=O)c(Cl)c1Cl`, the Ki on Carbonic anhydrase 1 is 0.47 µM; at Carbonic anhydrase 4, 0.049 µM.

With `Cc1cc(C)[n+](CC(=O)Nc2cc(C(F)(F)F)c(S(N)(=O)=O)cc2S(N)(=O)=O)c(C)c1`, the Ki on Carbonic anhydrase 1 was found to be 0.32 µM; on Carbonic anhydrase 4, 0.058 µM.

Regarding `Cc1cc(-c2ccccc2)cc(C)[n+]1CC(=O)NCCc1ccc(S(N)(=O)=O)cc1`, the Ki at Carbonic anhydrase 1 was found to be 0.72 µM; on Carbonic anhydrase 4 it was 0.046 µM.

As to `CCc1cc(-c2ccccc2)cc(CC)[n+]1CC(=O)Nc1ccc(S(N)(=O)=O)cc1I`, the figures for the inhibition constant Ki on Carbonic anhydrase 1 and on Carbonic anhydrase 4 were 0.62 µM and 0.064 µM, respectively.

`Cc1cc(-c2ccccc2)cc(C)[n+]1CC(=O)Nc1ccc2nc(S(N)(=O)=O)sc2c1`: the inhibitory constant (Ki) on Carbonic anhydrase 1 amounted to 0.01 µM; at Carbonic anhydrase 4, 0.019 µM.

Take `Cc1cc(C)[n+](CC(=O)OCc2ccc(S(N)(=O)=O)cc2)c(C)c1`: the inhibitory constant (Ki) at Carbonic anhydrase 1 worked out at 1.8 µM; on Carbonic anhydrase 4, 0.14 µM.

On to `Cc1cc(C)[n+](CC(=O)Oc2ccc3nc(S(N)(=O)=O)sc3c2)c(C)c1`, for which the Ki came to 0.013 µM on Carbonic anhydrase 1 and 0.029 µM at Carbonic anhydrase 4.

With `Cc1cc(C)[n+](CC(=O)Nc2ccc(S(N)(=O)=O)cc2F)c(C)c1`, the figures for the Ki on Carbonic anhydrase 1 and at Carbonic anhydrase 4 were 0.75 µM and 0.044 µM, respectively.

Regarding `CC(C)c1cc(-c2ccccc2)cc(C(C)C)[n+]1CC(=O)Nc1ccc(S(=O)(=O)/N=c2/sc(S(N)(=O)=O)nn2C)cc1`, the inhibition constant Ki at Carbonic anhydrase 1 was 0.015 µM; at Carbonic anhydrase 4, 0.01 µM.

As for `CC(C)c1cc(-c2ccccc2)cc(C(C)C)[n+]1CC(=O)Nc1ccc(S(=O)(=O)Nc2cccc(S(N)(=O)=O)c2)cc1`, the Ki on Carbonic anhydrase 1 is 0.053 µM; on Carbonic anhydrase 4, 0.072 µM.

With `Cc1cc(-c2ccccc2)cc(C)[n+]1CC(=O)NNc1ccc(S(N)(=O)=O)cc1`, the inhibition constant (Ki) is 26 µM at Carbonic anhydrase 1 and 0.31 µM at Carbonic anhydrase 4.

As to `CC(C)c1cc(-c2ccccc2)cc(C(C)C)[n+]1CC(=O)Nc1ccc(S(=O)(=O)Nc2ccc(S(N)(=O)=O)cc2)cc1`, the Ki on Carbonic anhydrase 1 is 0.05 µM; at Carbonic anhydrase 4, 0.073 µM.

Turning to `Cc1cc(C)[n+](CC(=O)NCCC(=O)Nc2nnc(S(N)(=O)=O)s2)c(C)c1`, the inhibition constant (Ki) at Carbonic anhydrase 1 was found to be 0.043 µM; on Carbonic anhydrase 4, 0.018 µM.

Regarding `Cc1cc(C)[n+](CC(=O)Nc2cccc(S(N)(=O)=O)c2)c(C)c1`, the values for the Ki at Carbonic anhydrase 1 and at Carbonic anhydrase 4 were 24 µM and 0.41 µM, respectively.

These data come from ChEMBL document CHEMBL1133669 (J Med Chem, 2000).
